Measured values published in the supplement of paper PMC5908809.

Assays:
KAI3 (IL-2 2.5 ng/mL) [1] = assay: drug sensitivity score (DSS) (DSS units); higher = more sensitive; extreme values may be limits of the assay; details: 72 h
[2] = system: normal primary NK cells, pool 1 (3 donors), resting (IL-2 0 ng/mL); assay: as above; details: 72 h
KHYG-1 (IL-2 2.5 ng/mL) [3] = assay: as above; details: 72 h
YT (IL-2 2.5 ng/mL) [4] = assay: as above; details: 72 h
DERL-7 (IL-2 2.5 ng/mL) [5] = assay: as above; details: 72 h
NK-92 (IL-2 2.5 ng/mL) [6] = assay: as above; details: 72 h
[7] = system: normal primary NK cells, pool 3 (3 donors) (IL-2 2.5 ng/mL); assay: as above; details: 72 h
[8] = system: normal primary NK cells, pool 2 (3 donors) (IL-2 2.5 ng/mL); assay: as above; details: 72 h
[9] = system: normal primary NK cells, pool 1 (3 donors) (IL-2 2.5 ng/mL); assay: as above; details: 72 h
NK-YS (IL-2 2.5 ng/mL) [10] = assay: as above; details: 72 h
NKL (IL-2 2.5 ng/mL) [11] = assay: as above; details: 72 h
SNK-6 (IL-2 2.5 ng/mL) [12] = assay: as above; details: 72 h
IMC-1 (IL-2 20 ng/mL) [13] = assay: as above; details: 72 h
KAI3 (IL-2 2.5 ng/mL) [14] = assay: percent inhibition of viability; higher = more inhibition; details: 72 h
[15] = system: normal primary NK cells, pool 1 (3 donors), resting (IL-2 0 ng/mL); assay: as above; details: 72 h
KHYG-1 (IL-2 2.5 ng/mL) [16] = assay: as above; details: 72 h
YT (IL-2 2.5 ng/mL) [17] = assay: as above; details: 72 h
DERL-7 (IL-2 2.5 ng/mL) [18] = assay: as above; details: 72 h
NK-92 (IL-2 2.5 ng/mL) [19] = assay: as above; details: 72 h
[20] = system: normal primary NK cells, pool 3 (3 donors) (IL-2 2.5 ng/mL); assay: as above; details: 72 h
[21] = system: normal primary NK cells, pool 2 (3 donors) (IL-2 2.5 ng/mL); assay: as above; details: 72 h
[22] = system: normal primary NK cells, pool 1 (3 donors) (IL-2 2.5 ng/mL); assay: as above; details: 72 h
NK-YS (IL-2 2.5 ng/mL) [23] = assay: as above; details: 72 h
NKL (IL-2 2.5 ng/mL) [24] = assay: as above; details: 72 h
SNK-6 (IL-2 2.5 ng/mL) [25] = assay: as above; details: 72 h
IMC-1 (IL-2 20 ng/mL) [26] = assay: as above; details: 72 h
[27] = system: normal NK cells expanded with K562-aAPC; assay: as above; details: 72 h, IL-2 2.5 ng/mL
Description: (§1)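 Drug sensitivity and resistance testing on K562-aAPC-expanded normal NK cells: 5 concentrations (10-fold steps over a 10,000-fold range), 72 h at 37 °C, viability by CellTiter-Glo normalised to DMSO and benzethonium chloride controls; DSS from the fitted curve.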

[28] = system: normal NK cells expanded with K562-aAPC; assay: drug sensitivity score (DSS) (DSS units); higher = more sensitive; extreme values may be limits of the assay; details: 72 h; IL-2 2.5 ng/mL
Description: as §1

Nc1cccc2c1CN(C1CCC(=O)NC1=O)C2=O (centres undefined) [Lenalidomide] (max concentration tested 100000 nM)
drug sensitivity score (KAI3 (IL-2 2.5 ng/mL) [1]): 4.39 | drug sensitivity score [2]: 7.86 | drug sensitivity score (KHYG-1 (IL-2 2.5 ng/mL) [3]): 1.04 | drug sensitivity score (YT (IL-2 2.5 ng/mL) [4]): 0.46 | drug sensitivity score (DERL-7 (IL-2 2.5 ng/mL) [5]): 0 | drug sensitivity score (NK-92 (IL-2 2.5 ng/mL) [6]): 2.68 | drug sensitivity score [7]: 0.01 | drug sensitivity score [8]: 0.06 | drug sensitivity score [9]: 0.82 | drug sensitivity score (NK-YS (IL-2 2.5 ng/mL) [10]): 0.64 | drug sensitivity score (NKL (IL-2 2.5 ng/mL) [11]): 3.34 | drug sensitivity score (SNK-6 (IL-2 2.5 ng/mL) [12]): 8.33 | drug sensitivity score (IMC-1 (IL-2 20 ng/mL) [13]): 0.13 | percent inhibition of viability (KAI3 (IL-2 2.5 ng/mL) [14]; 10 nM): -8.97% | percent inhibition of viability (KAI3 (IL-2 2.5 ng/mL) [14]; 100 nM): 1.64% | percent inhibition of viability (KAI3 (IL-2 2.5 ng/mL) [14]; 1000 nM): -0.65% | percent inhibition of viability (KAI3 (IL-2 2.5 ng/mL) [14]; 10000 nM): 10.5% | percent inhibition of viability (KAI3 (IL-2 2.5 ng/mL) [14]; 100000 nM): 50.6% | percent inhibition of viability ([15]; 10 nM): 1.29% | percent inhibition of viability ([15]; 100 nM): -2.98% | percent inhibition of viability ([15]; 1000 nM): 10.6% | percent inhibition of viability ([15]; 10000 nM): 35.5% | percent inhibition of viability ([15]; 100000 nM): 59.5% | percent inhibition of viability (KHYG-1 (IL-2 2.5 ng/mL) [16]; 10 nM): -5.45% | percent inhibition of viability (KHYG-1 (IL-2 2.5 ng/mL) [16]; 100 nM): 0.35% | percent inhibition of viability (KHYG-1 (IL-2 2.5 ng/mL) [16]; 1000 nM): 0.75% | percent inhibition of viability (KHYG-1 (IL-2 2.5 ng/mL) [16]; 10000 nM): 5.6% | percent inhibition of viability (KHYG-1 (IL-2 2.5 ng/mL) [16]; 100000 nM): 18.1% | percent inhibition of viability (YT (IL-2 2.5 ng/mL) [17]; 10 nM): 0.52% | percent inhibition of viability (YT (IL-2 2.5 ng/mL) [17]; 100 nM): 3.88% | percent inhibition of viability (YT (IL-2 2.5 ng/mL) [17]; 1000 nM): 7% | percent inhibition of viability (YT (IL-2 2.5 ng/mL) [17]; 10000 nM): 1.78% | percent inhibition of viability (YT (IL-2 2.5 ng/mL) [17]; 100000 nM): 15.6% | percent inhibition of viability (DERL-7 (IL-2 2.5 ng/mL) [18]; 10 nM): -8.15% | percent inhibition of viability (DERL-7 (IL-2 2.5 ng/mL) [18]; 100 nM): -7.59% | percent inhibition of viability (DERL-7 (IL-2 2.5 ng/mL) [18]; 1000 nM): -6.54% | percent inhibition of viability (DERL-7 (IL-2 2.5 ng/mL) [18]; 10000 nM): -8.34% | percent inhibition of viability (DERL-7 (IL-2 2.5 ng/mL) [18]; 100000 nM): -1.1% | percent inhibition of viability (NK-92 (IL-2 2.5 ng/mL) [19]; 10 nM): -4.74% | percent inhibition of viability (NK-92 (IL-2 2.5 ng/mL) [19]; 100 nM): -0.2% | percent inhibition of viability (NK-92 (IL-2 2.5 ng/mL) [19]; 1000 nM): 7.52% | percent inhibition of viability (NK-92 (IL-2 2.5 ng/mL) [19]; 10000 nM): 10.4% | percent inhibition of viability (NK-92 (IL-2 2.5 ng/mL) [19]; 100000 nM): 35.1% | percent inhibition of viability ([20]; 10 nM): -9.99% | percent inhibition of viability ([20]; 100 nM): -13.1% | percent inhibition of viability ([20]; 1000 nM): 8.3% | percent inhibition of viability ([20]; 10000 nM): -7.53% | percent inhibition of viability ([20]; 100000 nM): 12.1% | percent inhibition of viability ([21]; 10 nM): -16.8% | percent inhibition of viability ([21]; 100 nM): -10.4% | percent inhibition of viability ([21]; 1000 nM): 4.67% | percent inhibition of viability ([21]; 10000 nM): -3.79% | percent inhibition of viability ([21]; 100000 nM): 13.3% | percent inhibition of viability ([22]; 10 nM): 4.48% | percent inhibition of viability ([22]; 100 nM): -7.64% | percent inhibition of viability ([22]; 1000 nM): 6.17% | percent inhibition of viability ([22]; 10000 nM): 0.68% | percent inhibition of viability ([22]; 100000 nM): 22% | percent inhibition of viability (NK-YS (IL-2 2.5 ng/mL) [23]; 10 nM): -1.44% | percent inhibition of viability (NK-YS (IL-2 2.5 ng/mL) [23]; 100 nM): -1.49% | percent inhibition of viability (NK-YS (IL-2 2.5 ng/mL) [23]; 1000 nM): 0.99% | percent inhibition of viability (NK-YS (IL-2 2.5 ng/mL) [23]; 10000 nM): 3.35% | percent inhibition of viability (NK-YS (IL-2 2.5 ng/mL) [23]; 100000 nM): 15.9% | percent inhibition of viability (NKL (IL-2 2.5 ng/mL) [24]; 10 nM): -12.2% | percent inhibition of viability (NKL (IL-2 2.5 ng/mL) [24]; 100 nM): -2.95% | percent inhibition of viability (NKL (IL-2 2.5 ng/mL) [24]; 1000 nM): -12.4% | percent inhibition of viability (NKL (IL-2 2.5 ng/mL) [24]; 10000 nM): 8.93% | percent inhibition of viability (NKL (IL-2 2.5 ng/mL) [24]; 100000 nM): 39.2% | percent inhibition of viability (SNK-6 (IL-2 2.5 ng/mL) [25]; 10 nM): 5.02% | percent inhibition of viability (SNK-6 (IL-2 2.5 ng/mL) [25]; 100 nM): 1.16% | percent inhibition of viability (SNK-6 (IL-2 2.5 ng/mL) [25]; 1000 nM): 7.72% | percent inhibition of viability (SNK-6 (IL-2 2.5 ng/mL) [25]; 10000 nM): 40.7% | percent inhibition of viability (SNK-6 (IL-2 2.5 ng/mL) [25]; 100000 nM): 50.3% | percent inhibition of viability (IMC-1 (IL-2 20 ng/mL) [26]; 10 nM): -4.67% | percent inhibition of viability (IMC-1 (IL-2 20 ng/mL) [26]; 100 nM): 1.54% | percent inhibition of viability (IMC-1 (IL-2 20 ng/mL) [26]; 1000 nM): 2.6% | percent inhibition of viability (IMC-1 (IL-2 20 ng/mL) [26]; 10000 nM): 7.23% | percent inhibition of viability (IMC-1 (IL-2 20 ng/mL) [26]; 100000 nM): 12.5% | percent inhibition of viability ([27]; 10 nM): -4.41% | percent inhibition of viability ([27]; 100 nM): -0.84% | percent inhibition of viability ([27]; 1000 nM): -0.51% | percent inhibition of viability ([27]; 10000 nM): 11.3% | percent inhibition of viability ([27]; 100000 nM): 16.5% | drug sensitivity score [28]: 1.25
